# In the NIST ThermoML archive (doi:10.1021/acs.jced.8b00786):
# Numbers after ± are expanded uncertainties.
# Assay: xn = mol fraction of the nth substance listed
# Settings: Liquid; for viscosity: Capillary tube (Ostwald / Ubbelohde) method; for mass density: Vibrating tube method
# [1] = 313.15 K, 11290 kPa, x2 = 0.519
# [2] = 313.15 K, 12320 kPa, x2 = 0.299
# [3] = 313.15 K, 12560 kPa, x2 = 0.199
# [4] = 313.15 K, 21910 kPa, x2 = 0.519
# [5] = 313.15 K, 23100 kPa, x2 = 0.299
# [6] = 313.15 K, 23440 kPa, x2 = 0.199
# [7] = 313.15 K, 42900 kPa, x2 = 0.519
# [8] = 313.15 K, 44510 kPa, x2 = 0.299
# [9] = 313.15 K, 45240 kPa, x2 = 0.199
# [10] = 313.15 K, 57150 kPa, x2 = 0.519
# [11] = 313.15 K, 58570 kPa, x2 = 0.299
# [12] = 313.15 K, 60140 kPa, x2 = 0.199
# [13] = 313.15 K, 71140 kPa, x2 = 0.519
# [14] = 313.15 K, 73410 kPa, x2 = 0.299
# [15] = 313.15 K, 74430 kPa, x2 = 0.199
# [16] = 338.15 K, 10860 kPa, x2 = 0.519
# [17] = 338.15 K, 11180 kPa, x2 = 0.299
# [18] = 338.15 K, 11690 kPa, x2 = 0.199
# [19] = 338.15 K, 21260 kPa, x2 = 0.519
# [20] = 338.15 K, 21990 kPa, x2 = 0.199
# [21] = 338.15 K, 21990 kPa, x2 = 0.299
# [22] = 338.15 K, 42140 kPa, x2 = 0.519
# [23] = 338.15 K, 42690 kPa, x2 = 0.299
# [24] = 338.15 K, 42870 kPa, x2 = 0.199
# [25] = 338.15 K, 56660 kPa, x2 = 0.519
# [26] = 338.15 K, 57330 kPa, x2 = 0.299
# [27] = 338.15 K, 57570 kPa, x2 = 0.199
# [28] = 338.15 K, 69970 kPa, x2 = 0.199
# [29] = 338.15 K, 70400 kPa, x2 = 0.519
# [30] = 338.15 K, 71030 kPa, x2 = 0.299
# [31] = 363.15 K, 10740 kPa, x2 = 0.519
# [32] = 363.15 K, 10840 kPa, x2 = 0.299
# [33] = 363.15 K, 11090 kPa, x2 = 0.199
# [34] = 363.15 K, 21180 kPa, x2 = 0.299
# [35] = 363.15 K, 21340 kPa, x2 = 0.519
# [36] = 363.15 K, 21420 kPa, x2 = 0.199
# [37] = 363.15 K, 42180 kPa, x2 = 0.519
# [38] = 363.15 K, 42250 kPa, x2 = 0.299
# [39] = 363.15 K, 42490 kPa, x2 = 0.199
# [40] = 363.15 K, 56170 kPa, x2 = 0.519
# [41] = 363.15 K, 56390 kPa, x2 = 0.299
# [42] = 363.15 K, 56730 kPa, x2 = 0.199
# [43] = 363.15 K, 70120 kPa, x2 = 0.519
# [44] = 363.15 K, 70320 kPa, x2 = 0.299
# [45] = 363.15 K, 70780 kPa, x2 = 0.199
structure (smiles),measurement,setting,value
"CC(C)CCCC(C)CCCC(C)CCCCC(C)CCCC(C)CCCC(C)C (stereo not drawn) [2,6,10,15,19,23-hexamethyltetracosane] + O=C=O",viscosity,"313.15 K, 2790 kPa, x2 = 0.199",11.4 ± 0.27 mPa·s
same,mass density,"313.15 K, 2790 kPa, x2 = 0.199",796.7 ± 2.4 kg/m3
same,viscosity,"313.15 K, 3900 kPa, x2 = 0.299",9.2 ± 0.22 mPa·s
same,mass density,"313.15 K, 3900 kPa, x2 = 0.299",799.1 ± 2.4 kg/m3
same,viscosity,"313.15 K, 5300 kPa, x2 = 0.519",5.1 ± 0.14 mPa·s
same,mass density,"313.15 K, 5300 kPa, x2 = 0.519",804.5 ± 2.4 kg/m3
same,viscosity,[1],5.59 ± 0.15 mPa·s
same,mass density,[1],810.3 ± 2.5 kg/m3
same,viscosity,[2],10.5 ± 0.25 mPa·s
same,mass density,[2],805.8 ± 2.4 kg/m3
same,viscosity,[3],13.39 ± 0.32 mPa·s
same,mass density,[3],804.5 ± 2.4 kg/m3
same,viscosity,[4],6.47 ± 0.18 mPa·s
same,mass density,[4],819.7 ± 2.5 kg/m3
same,viscosity,[5],12.46 ± 0.3 mPa·s
same,mass density,[5],813.6 ± 2.5 kg/m3
same,viscosity,[6],16.14 ± 0.39 mPa·s
same,mass density,[6],812.5 ± 2.5 kg/m3
same,viscosity,[7],8.58 ± 0.24 mPa·s
same,mass density,[7],836.1 ± 2.6 kg/m3
same,viscosity,[8],17.08 ± 0.42 mPa·s
same,mass density,[8],828.1 ± 2.5 kg/m3
same,viscosity,[9],22.88 ± 0.57 mPa·s
same,mass density,[9],826.3 ± 2.5 kg/m3
same,viscosity,[10],10.52 ± 0.3 mPa·s
same,mass density,[10],846 ± 2.6 kg/m3
same,viscosity,[11],21.56 ± 0.53 mPa·s
same,mass density,[11],836.5 ± 2.6 kg/m3
same,viscosity,[12],28.7 ± 0.7 mPa·s
same,mass density,[12],834.5 ± 2.6 kg/m3
same,viscosity,[13],12.5 ± 0.37 mPa·s
same,mass density,[13],854.8 ± 2.6 kg/m3
same,viscosity,[14],26.51 ± 0.65 mPa·s
same,mass density,[14],844.9 ± 2.6 kg/m3
same,viscosity,[15],35.87 ± 0.87 mPa·s
same,mass density,[15],841.6 ± 2.6 kg/m3
same,viscosity,"338.15 K, 3100 kPa, x2 = 0.199",5.61 ± 0.16 mPa·s
same,mass density,"338.15 K, 3100 kPa, x2 = 0.199",780.2 ± 2.4 kg/m3
same,viscosity,"338.15 K, 3320 kPa, x2 = 0.299",4.69 ± 0.12 mPa·s
same,mass density,"338.15 K, 3320 kPa, x2 = 0.299",782.1 ± 2.4 kg/m3
same,viscosity,"338.15 K, 6440 kPa, x2 = 0.519",2.96 ± 0.07 mPa·s
same,mass density,"338.15 K, 6440 kPa, x2 = 0.519",787.1 ± 2.4 kg/m3
same,viscosity,[16],3.18 ± 0.08 mPa·s
same,mass density,[16],791.5 ± 2.4 kg/m3
same,viscosity,[17],5.36 ± 0.13 mPa·s
same,mass density,[17],788.3 ± 2.4 kg/m3
same,viscosity,[18],6.41 ± 0.17 mPa·s
same,mass density,[18],787.3 ± 2.4 kg/m3
same,viscosity,[19],3.58 ± 0.09 mPa·s
same,mass density,[19],801 ± 2.4 kg/m3
same,viscosity,[20],7.61 ± 0.21 mPa·s
same,viscosity,[21],6.16 ± 0.16 mPa·s
same,mass density,[20],795.1 ± 2.4 kg/m3
same,mass density,[21],796.2 ± 2.4 kg/m3
same,viscosity,[22],4.78 ± 0.12 mPa·s
same,mass density,[22],817.7 ± 2.5 kg/m3
same,viscosity,[23],8.3 ± 0.21 mPa·s
same,mass density,[23],810.4 ± 2.5 kg/m3
same,viscosity,[24],10.48 ± 0.3 mPa·s
same,mass density,[24],808.7 ± 2.5 kg/m3
same,viscosity,[25],5.67 ± 0.15 mPa·s
same,mass density,[25],827.7 ± 2.5 kg/m3
same,viscosity,[26],10.09 ± 0.26 mPa·s
same,mass density,[26],819.2 ± 2.5 kg/m3
same,viscosity,[27],12.79 ± 0.37 mPa·s
same,mass density,[27],817.1 ± 2.5 kg/m3
same,viscosity,[28],15.43 ± 0.48 mPa·s
same,mass density,[28],823.5 ± 2.6 kg/m3
same,viscosity,[29],6.59 ± 0.17 mPa·s
same,mass density,[29],836.4 ± 2.6 kg/m3
same,viscosity,[30],12.17 ± 0.32 mPa·s
same,mass density,[30],826.9 ± 2.6 kg/m3
same,viscosity,"363.15 K, 2670 kPa, x2 = 0.199",3.2 ± 0.08 mPa·s
same,mass density,"363.15 K, 2670 kPa, x2 = 0.199",763.2 ± 2.3 kg/m3
same,viscosity,"363.15 K, 3820 kPa, x2 = 0.299",2.86 ± 0.07 mPa·s
same,mass density,"363.15 K, 3820 kPa, x2 = 0.299",766.2 ± 2.3 kg/m3
same,viscosity,"363.15 K, 7280 kPa, x2 = 0.519",1.93 ± 0.05 mPa·s
same,mass density,"363.15 K, 7280 kPa, x2 = 0.519",769.5 ± 2.3 kg/m3
same,viscosity,[31],2.06 ± 0.05 mPa·s
same,mass density,[31],772.7 ± 2.3 kg/m3
same,viscosity,[32],3.14 ± 0.08 mPa·s
same,mass density,[32],771.7 ± 2.3 kg/m3
same,viscosity,[33],3.71 ± 0.09 mPa·s
same,mass density,[33],770.2 ± 2.3 kg/m3
same,viscosity,[34],3.59 ± 0.09 mPa·s
same,mass density,[34],779.2 ± 2.4 kg/m3
same,viscosity,[35],2.31 ± 0.06 mPa·s
same,mass density,[35],782.5 ± 2.4 kg/m3
same,viscosity,[36],4.33 ± 0.11 mPa·s
same,mass density,[36],778.2 ± 2.4 kg/m3
same,viscosity,[37],3 ± 0.08 mPa·s
same,mass density,[37],799.3 ± 2.5 kg/m3
same,viscosity,[38],4.8 ± 0.12 mPa·s
same,mass density,[38],793.2 ± 2.4 kg/m3
same,viscosity,[39],5.75 ± 0.15 mPa·s
same,mass density,[39],792.2 ± 2.4 kg/m3
same,viscosity,[40],3.43 ± 0.09 mPa·s
same,mass density,[40],809.2 ± 2.5 kg/m3
same,viscosity,[41],5.69 ± 0.14 mPa·s
same,mass density,[41],801.8 ± 2.5 kg/m3
same,viscosity,[42],6.83 ± 0.18 mPa·s
same,mass density,[42],800.5 ± 2.5 kg/m3
same,viscosity,[43],4.08 ± 0.11 mPa·s
same,mass density,[43],818 ± 2.5 kg/m3
same,viscosity,[44],6.81 ± 0.17 mPa·s
same,mass density,[44],809.6 ± 2.5 kg/m3
same,viscosity,[45],8.08 ± 0.21 mPa·s
same,mass density,[45],807.9 ± 2.5 kg/m3
